ChEMBL document CHEMBL1201861, “Genomics of Drug Sensitity in Cancer screening data, Wellcome Trust Sanger Institute”

Legend:
Test in all cases: cells
COLO-792 = format: functional, cell-based, Homo sapiens; conditions: Homo sapiens, COLO-792
Description: SANGER: Inhibition of human COLO-792 cell growth in a cell viability assay.

COLO-824 = format: functional, cell-based, Homo sapiens; conditions: Homo sapiens, COLO-824
Description: SANGER: Inhibition of human COLO-824 cell growth in a cell viability assay.

COR-L23 = format: functional, cell-based, Homo sapiens; conditions: Homo sapiens, COR-L23
Description: SANGER: Inhibition of human COR-L23 cell growth in a cell viability assay.

D-247MG = format: functional, cell-based, Homo sapiens; conditions: Homo sapiens, D-247MG
Description: SANGER: Inhibition of human D-247MG cell growth in a cell viability assay.

ES1 = format: functional, cell-based, Homo sapiens; conditions: Homo sapiens, ES1
Description: SANGER: Inhibition of human ES1 cell growth in a cell viability assay.

ESS-1 = format: functional, cell-based, Homo sapiens; conditions: Homo sapiens, ESS-1
Description: SANGER: Inhibition of human ESS-1 cell growth in a cell viability assay.

EOL1 = format: functional, cell-based; conditions: Homo sapiens
Description: SANGER: Inhibition of human EoL-1-cell cell growth in a cell viability assay.

HCC1187 = format: functional, cell-based, Homo sapiens; conditions: Homo sapiens, HCC1187
Description: SANGER: Inhibition of human HCC1187 cell growth in a cell viability assay.

HCC1395 = format: functional, cell-based, Homo sapiens; conditions: Homo sapiens, HCC1395
Description: SANGER: Inhibition of human HCC1395 cell growth in a cell viability assay.

J-RT3-T3-5 = format: functional, cell-based; conditions: Homo sapiens
Description: SANGER: Inhibition of human J-RT3-T3-5 cell growth in a cell viability assay.

JVM-3 = format: functional, cell-based; conditions: Homo sapiens
Description: SANGER: Inhibition of human JVM-3 cell growth in a cell viability assay.

KINGS-1 = format: functional, cell-based, Homo sapiens; conditions: Homo sapiens, KINGS-1
Description: SANGER: Inhibition of human KINGS-1 cell growth in a cell viability assay.

KNS-42 = format: functional, cell-based, Homo sapiens; conditions: Homo sapiens, KNS-42
Description: SANGER: Inhibition of human KNS-42 cell growth in a cell viability assay.

KS-1 = format: functional, cell-based, Homo sapiens; conditions: Homo sapiens, KS-1
Description: SANGER: Inhibition of human KS-1 cell growth in a cell viability assay.

KYSE-70 cell line = format: functional, cell-based, Homo sapiens; conditions: Homo sapiens, KYSE-70
Description: SANGER: Inhibition of human KYSE-70 cell growth in a cell viability assay.

LAN-6 = format: functional, cell-based, Homo sapiens; conditions: Homo sapiens, LAN-6
Description: SANGER: Inhibition of human LAN-6 cell growth in a cell viability assay.

LB373-MEL-D = format: functional, cell-based, Homo sapiens; conditions: Homo sapiens, LB373-MEL-D
Description: SANGER: Inhibition of human LB373-MEL-D cell growth in a cell viability assay.

LN-405 = format: functional, cell-based, Homo sapiens; conditions: Homo sapiens, LN-405
Description: SANGER: Inhibition of human LN-405 cell growth in a cell viability assay.

MG-63 = format: functional, cell-based, Homo sapiens; conditions: Homo sapiens, MG-63
Description: SANGER: Inhibition of human MG-63 cell growth in a cell viability assay.

MPP-89 = format: functional, cell-based, Homo sapiens; conditions: Homo sapiens, MPP-89
Description: SANGER: Inhibition of human MPP-89 cell growth in a cell viability assay.

NB5 = format: functional, cell-based, Homo sapiens; conditions: Homo sapiens, NB5
Description: SANGER: Inhibition of human NB5 cell growth in a cell viability assay.

NCI-H2087 = format: functional, cell-based, Homo sapiens; conditions: Homo sapiens, NCI-H2087
Description: SANGER: Inhibition of human NCI-H2087 cell growth in a cell viability assay.

NCI-H2347 = format: functional, cell-based, Homo sapiens; conditions: Homo sapiens, NCI-H2347
Description: SANGER: Inhibition of human NCI-H2347 cell growth in a cell viability assay.

NCI-H2405 = format: functional, cell-based, Homo sapiens; conditions: Homo sapiens, NCI-H2405
Description: SANGER: Inhibition of human NCI-H2405 cell growth in a cell viability assay.

NCI-H292 = format: functional, cell-based, Homo sapiens; conditions: Homo sapiens, NCI-H292
Description: SANGER: Inhibition of human NCI-H292 cell growth in a cell viability assay.

NCI-H358 = format: functional, cell-based, Homo sapiens; conditions: Homo sapiens, NCI-H358
Description: SANGER: Inhibition of human NCI-H358 cell growth in a cell viability assay.

NCI-H661 = format: functional, cell-based, Homo sapiens; conditions: Homo sapiens, NCI-H661
Description: SANGER: Inhibition of human NCI-H661 cell growth in a cell viability assay.

NCI-H82 = format: functional, cell-based; conditions: Homo sapiens
Description: SANGER: Inhibition of human NCI-H82 cell growth in a cell viability assay.

NKM-1 = format: functional, cell-based; conditions: Homo sapiens
Description: SANGER: Inhibition of human NKM-1 cell growth in a cell viability assay.

OCUB-M = format: functional, cell-based, Homo sapiens; conditions: Homo sapiens, OCUB-M
Description: SANGER: Inhibition of human OCUB-M cell growth in a cell viability assay.

OVCAR-8 = format: functional, cell-based, Homo sapiens; conditions: Homo sapiens, OVCAR-8
Description: SANGER: Inhibition of human OVCAR-8 cell growth in a cell viability assay.

RVH-421 = format: functional, cell-based, Homo sapiens; conditions: Homo sapiens, RVH-421
Description: SANGER: Inhibition of human RVH-421 cell growth in a cell viability assay.

SAS = format: functional, cell-based, Homo sapiens; conditions: Homo sapiens, SAS
Description: SANGER: Inhibition of human SAS cell growth in a cell viability assay.

SF-126 = format: functional, cell-based, Homo sapiens; conditions: Homo sapiens, SF-126
Description: SANGER: Inhibition of human SF126 cell growth in a cell viability assay.

SK-LU-1 = format: functional, cell-based, Homo sapiens; conditions: Homo sapiens, SK-LU-1
Description: SANGER: Inhibition of human SK-LU-1 cell growth in a cell viability assay.

SW1990 = format: functional, cell-based, Homo sapiens; conditions: Homo sapiens, SW1990
Description: SANGER: Inhibition of human SW1990 cell growth in a cell viability assay.

SW626 = format: functional, cell-based, Homo sapiens; conditions: Homo sapiens, SW626
Description: SANGER: Inhibition of human SW626 cell growth in a cell viability assay.

SW872 = format: functional, cell-based, Homo sapiens; conditions: Homo sapiens, SW872
Description: SANGER: Inhibition of human SW872 cell growth in a cell viability assay.

SAOS-2 = format: functional, cell-based, Homo sapiens; conditions: Homo sapiens, SAOS-2
Description: SANGER: Inhibition of human Saos-2 cell growth in a cell viability assay.

SiHa = format: functional, cell-based, Homo sapiens; conditions: Homo sapiens, SiHa
Description: SANGER: Inhibition of human SiHa cell growth in a cell viability assay.

TCC-SUP = format: functional, cell-based, Homo sapiens; conditions: Homo sapiens, TCC-SUP
Description: SANGER: Inhibition of human TCCSUP cell growth in a cell viability assay.

ACN = format: functional, cell-based, Homo sapiens; conditions: Homo sapiens, ACN
Description: SANGER: Inhibition of human ACN cell growth in a cell viability assay.

AN3-CA = format: functional, cell-based; conditions: Homo sapiens
Description: SANGER: Inhibition of human AN3-CA cell growth in a cell viability assay.

BPH-1 = format: functional, cell-based, Homo sapiens; conditions: Homo sapiens, BPH-1
Description: SANGER: Inhibition of human BPH-1 cell growth in a cell viability assay.

C32 = format: functional, cell-based, Homo sapiens; conditions: Homo sapiens, C32
Description: SANGER: Inhibition of human C32 cell growth in a cell viability assay.

C3A = format: functional, cell-based, Homo sapiens; conditions: Homo sapiens, C3A
Description: SANGER: Inhibition of human C3A cell growth in a cell viability assay.

CAKI-1 = format: functional, cell-based, Homo sapiens; conditions: Homo sapiens, CAKI-1
Description: SANGER: Inhibition of human CAKI-1 cell growth in a cell viability assay.

CAL-62 = format: functional, cell-based, Homo sapiens; conditions: Homo sapiens, CAL-62
Description: SANGER: Inhibition of human CAL-62 cell growth in a cell viability assay.

CAL-85-1 = format: functional, cell-based; conditions: Homo sapiens
Description: SANGER: Inhibition of human CAL-85-1 cell growth in a cell viability assay.

TE-8 = format: functional, cell-based, Homo sapiens; conditions: Homo sapiens, TE-8
Description: SANGER: Inhibition of human TE-8 cell growth in a cell viability assay.

no-10 = format: functional, cell-based, Homo sapiens; conditions: Homo sapiens
Description: SANGER: Inhibition of human no-10 cell growth in a cell viability assay.

## Nc1ccn([C@@H]2O[C@H](CO)[C@@H](O)[C@@H]2O)c(=O)n1 [CYTARABINE]
COLO-792
  IC50: 1.05 µM
COLO-824
  IC50: > 2 µM
COR-L23
  IC50: 0.797 µM
D-247MG
  IC50: 1.09 µM
ES1
  IC50: 0.013 µM
ESS-1
  IC50: > 2 µM
EOL1
  IC50: 0.803 µM
HCC1187
  IC50: > 2 µM
HCC1395
  IC50: > 2 µM
J-RT3-T3-5
  IC50: 0.0684 µM
JVM-3
  IC50: 1.45 µM
KINGS-1
  IC50: > 2 µM
KNS-42
  IC50: > 2 µM
KS-1
  IC50: > 2 µM
KYSE-70 cell line
  IC50: 1.86 µM
LAN-6
  IC50: > 2 µM
LB373-MEL-D
  IC50: > 2 µM
LN-405
  IC50: > 2 µM
MG-63
  IC50: > 2 µM
MPP-89
  IC50: 1.31 µM
NB5
  IC50: 0.452 µM
NCI-H2087
  IC50: > 2 µM
NCI-H2347
  IC50: > 2 µM
NCI-H2405
  IC50: > 2 µM
NCI-H292
  IC50: 0.114 µM
NCI-H358
  IC50: > 2 µM
NCI-H661
  IC50: 1.73 µM
NCI-H82
  IC50: > 2 µM
NKM-1
  IC50: 1.06 µM
OCUB-M
  IC50: > 2 µM
OVCAR-8
  IC50: 0.211 µM
RVH-421
  IC50: > 2 µM
SAS
  IC50: 0.108 µM
SF-126
  IC50: 0.693 µM
SK-LU-1
  IC50: 1.31 µM
SW1990
  IC50: > 2 µM
SW626
  IC50: > 2 µM
SW872
  IC50: > 2 µM
SAOS-2
  IC50: 0.682 µM
SiHa
  IC50: 0.856 µM
TCC-SUP
  IC50: > 2 µM
ACN
  IC50: > 2 µM
AN3-CA
  IC50: 1.84 µM
BPH-1
  IC50: > 2 µM
C32
  IC50: > 2 µM
C3A
  IC50: > 2 µM
CAKI-1
  IC50: 0.12 µM
CAL-62
  IC50: 0.71 µM
CAL-85-1
  IC50: > 2 µM
TE-8
  IC50: 0.219 µM
no-10
  IC50: > 2 µM

## COc1cc([C@@H]2c3cc4c(cc3[C@@H](O[C@@H]3O[C@@H]5CO[C@@H](C)O[C@H]5[C@H](O)[C@H]3O)[C@H]3COC(=O)[C@H]23)OCO4)cc(OC)c1O [ETOPOSIDE]
COLO-792
  IC50: > 16 µM
COLO-824
  IC50: > 16 µM
COR-L23
  IC50: 6.18 µM
D-247MG
  IC50: > 16 µM
ES1
  IC50: 0.254 µM
ESS-1
  IC50: 0.531 µM
EOL1
  IC50: 0.302 µM
HCC1187
  IC50: > 16 µM
HCC1395
  IC50: > 16 µM
J-RT3-T3-5
  IC50: 1.59 µM
JVM-3
  IC50: > 16 µM
KINGS-1
  IC50: > 16 µM
KNS-42
  IC50: 13.7 µM
KS-1
  IC50: 0.334 µM
KYSE-70 cell line
  IC50: > 16 µM
LAN-6
  IC50: > 16 µM
LB373-MEL-D
  IC50: > 16 µM
LN-405
  IC50: > 16 µM
MG-63
  IC50: 1.18 µM
MPP-89
  IC50: > 16 µM
NB5
  IC50: > 16 µM
NCI-H2087
  IC50: 0.763 µM
NCI-H2347
  IC50: 9.66 µM
NCI-H2405
  IC50: 2.44 µM
NCI-H292
  IC50: 4.71 µM
NCI-H358
  IC50: 3.15 µM
NCI-H661
  IC50: 4.34 µM
NCI-H82
  IC50: > 16 µM
NKM-1
  IC50: 0.425 µM
OCUB-M
  IC50: 0.0446 µM
OVCAR-8
  IC50: 1.09 µM
RVH-421
  IC50: > 16 µM
SAS
  IC50: 1.27 µM
SF-126
  IC50: 1.44 µM
SK-LU-1
  IC50: 1.29 µM
SW1990
  IC50: 5.64 µM
SW626
  IC50: 8.9 µM
SW872
  IC50: 0.64 µM
SAOS-2
  IC50: > 16 µM
SiHa
  IC50: > 16 µM
TCC-SUP
  IC50: 11.6 µM
ACN
  IC50: 0.079 µM
AN3-CA
  IC50: 2.2 µM
BPH-1
  IC50: 0.943 µM
C32
  IC50: > 16 µM
C3A
  IC50: 7.93 µM
CAKI-1
  IC50: 6.65 µM
CAL-62
  IC50: 0.851 µM
CAL-85-1
  IC50: 2.16 µM
TE-8
  IC50: 8.75 µM
no-10
  IC50: 3.49 µM
